Active and inactive are the calls of the source. The calls are words filed in the database; no cut-off is given here.
Experiments:
Huh-7 [1] = test: Induction of apoptosis in human Huh-7 cells assessed as loss of mitochondrial membrane potential by measuring JC-1 stained cells at 40 nM measured after 24 hrs by JC-1 staining based flow cytometry (reference value: 2.27%); assay type: functional
SK-HEP1 [2] = test: Induction of apoptosis in human SK-HEP1 assessed as loss of mitochondrial membrane potential by measuring JC-1 stained cells at 40 nM measured after 24 hrs by JC-1 staining based flow cytometry (reference value: 0.49%); assay type: functional
Huh-7 [3] = test: Induction of apoptosis in human Huh-7 cells assessed as ROS generation by measuring DCFH2-DA stained cells at 40 nM measured after 24 hrs […] (reference value: 0.45%); assay type: functional
SK-HEP1 [4] = test: Induction of apoptosis in human SK-HEP1 cells assessed as ROS generation by measuring DCFH2-DA stained cells at 80 nM measured after 24 hrs […] (reference value: 0.14%); assay type: functional
Huh-7 [5] = test: Inhibition of cell invasion in human Huh-7 cells assessed as decrease in number of cells migration into lower compartment at 10 nM measured after 24 hrs by transwell assay; assay type: functional, cell-based
Huh-7 [6] = test: Induction of cell cycle arrest in human Huh-7 cells assessed as accumulation of cells at G1 phase 20 nM measured after 24 hrs by flow cytometric assay (reference value: 63.01%); assay type: functional

C[N+](C)(C)CCC(=O)Oc1ccc2[nH]c3c(c2c1)CCN1C(=O)c2cc(F)cc(F)c2N(c2cccc(F)c2)C31.[I-] (stereo unspecified)
Activity (Huh-7 [1]): 3.05% | Activity (SK-HEP1 [2]): 1.49% | Activity (Huh-7 [3]): 1.09% | Activity (SK-HEP1 [4]): 56.75% | inhibition (Huh-7 [5]): Active | Activity (Huh-7 [6]): 66.72%

— ChEMBL document CHEMBL6071160, “Identification of a novel 10-hydroxyevodiamine prodrug as a potent topoisomerase inhibitor with improved aqueous solubility for treatment of hepatocellular carcinoma” (Eur J Med Chem, 2024)
